Experimental data reported in patent EP1542672B1, “R-BAMBUTEROL, ITS PREPARATION AND THERAPEUTIC USES” (priority 2002, dated 2004).

How the values were obtained:
hyperlipidemia mice = assay: Lipid lowering effects in Tyloxapol-induced hyperlipidemia mice; format: in vivo, Kunming strain; settings: plasma; 10 mg/kg oral once a day for four days; Tyloxapol 400 mg/kg i.p.; blood 24 hours after Tyloxapol
Protocol: Test method: Male and […] mice, Kunming strain, 35 each, weight 18-22 grams, were used. Food and water were available ad libitum. The animals were randomized into 7 groups (n=10). Groups of animals were administered orally, via a stomach tube, vehicle (distilled water, two groups), R-bambuterol hydrochloride (10 mg/kg and 5 mg/kg), racemic bambuterol hydrochloride (10 mg/kg and 5 mg/kg) and simvastatin (10 mg/kg) once a day for four days. With the exception of one vehicle- treated group (as control), Tyloxapol (400 mg/kg, Sigma Chemical Co.) was injected into the peritoneal cavity of the mice of all groups immediately after the last treatment on the fourth day in order to induce hyperlipidemia. All the animals were fasted overnight prior to the injection of Tyloxapol. Blood samples were collected by cardiac puncture 24 hours after the injection of Tyloxapol. The blood samples were processed to plasma, and concentration of triglycerides (TG), cholesterol (CHO), high density lipoprotein (HDL), low density lipoprotein (LDL) and very low density lipoprotein (VLDL) were measured with an auto-blood analyzer (Olympic, Japan).

Rats (Sprague Dawley) = assay: Cardiovascular effects in anesthetized rats (HR, MBP, Max dp/dt); format: in vivo; settings: 30 mg/kg intravenously
Excerpt: Test method: Rats (Sprague Dawley, 250-300g) were randomized into two groups (n=6, equal sexes). After anesthesia, plastic tubing was introduced into a carotid artery of each animal and connected to pressure transducers to record mean artery pressure (MBP) and heart rate (HR). Another tube was introduced into the left ventricular chamber via the another carotid artery and connected to a pressure transducer. Left ventricular systolic pressure (LVSP) and the first order of differential of LVSP (dp/dt) as an index for inotropic effects were recorded. R-Bambuterol and racemic bambuterol hydrochloride were dissolved in saline and administrated intravenously at 30 mg/kg to each animal. The HR, MBP and Max dp/dt were measured before treatment (control) and after the treatments when the maximum response occurred, and 20 min after treatment as indication of recovery.

[1] = bronchospasmolytic activity upon oral administration; cited from earlier work
[2] = 20 min after treatment (recovery)
[3] = change from pre-treatment control at maximum response

CN(C)C(=O)Oc1cc(OC(=O)N(C)C)cc(C(O)CNC(C)(C)C)c1 (racemic) [bambuterol]
CHO lipid levels (hyperlipidemia mice): 125.2 ± 19.8 mg/dL
HDL lipid levels (hyperlipidemia mice): 50 ± 17 mg/dL
LDL lipid levels (hyperlipidemia mice): 30 ± 6 mg/dL
TG lipid levels (hyperlipidemia mice): 148 ± 45 mg/dL
VLDL lipid levels (hyperlipidemia mice): 44.2 ± 14.4 mg/dL
HR, 20min after Δ (Rats (Sprague Dawley); [2]): 40±9 Beat/min
MBP, 20min after Δ (Rats (Sprague Dawley); [2]): 1.1±0.4 Kpa
MBP, 20min after Δ, % of control (Rats (Sprague Dawley); [2]): 8.3%
Maxdp/dt, 20min after Δ (Rats (Sprague Dawley); [2]): 13±3.8 Kpa/sec
Maxdp/dt, 20min after Δ, % of control (Rats (Sprague Dawley); [2]): 4.8%
HR, 20min after Δ, % of Control (Rats (Sprague Dawley); 20 min after treatment (recovery), listed as Rac-Bambuterol): 9.5%
HR, 20min after Δ, % of Control (Rats (Sprague Dawley); 20 min after treatment (recovery), listed as racemic bambuterol hydrochloride): 9.5%
HR, Treatment Δ, % of Control (Rats (Sprague Dawley); at maximum response): 20.6%
MBP, Treatment Δ, % of control (Rats (Sprague Dawley); at maximum response): 31.6%
Maxdp/dt, Treatment Δ, % of control (Rats (Sprague Dawley); at maximum response, listed as Rac-Bambuterol): 24.4%
Maxdp/dt, Treatment Δ, % of control (Rats (Sprague Dawley); at maximum response, listed as racemic bambuterol): 24.4%
HR, Treatment Δ (Rats (Sprague Dawley); [3]): 85.8±5 Beat/min
MBP, Treatment Δ (Rats (Sprague Dawley); [3]): 4.2±0.5 Kpa
Maxdp/dt, Treatment Δ (Rats (Sprague Dawley); [3]): 65.4±9 Kpa/sec
duration of activity [1]: more than 12 hours
